Assay results as given in ChEMBL document CHEMBL3507680, “University of Dundee, Gates Library screen for HepG2 cell viability”.

Test: Human HepG2 cell viability assay in 384 well format
Assay type: toxicity, cell-based
Parameters: dose 125 nL, time 70.5 hour; concentration not given beside the values
Conditions: HepG2 cells, read-out: Inhibition

Structure (SMILES)	cytotoxicity at 70.5 h [%]
O=C(CCN1CCCCC1)N1CCC(Cc2ccc(CO)cc2)C1 (stereo not given)	-6.38
O=C(CCCc1cccs1)N1CCC(N2CCNC2=O)CC1	22.1
COc1ccc(C(=O)N(CCC#N)Cc2ccccn2)cc1	-2.45
Cc1nnc(CSc2ccccn2)o1	-13.6
COCCCNC(=O)Nc1cccc2c1CCN(S(C)(=O)=O)C2	21.4
CC(C(=O)NCCCn1ccnc1)n1cc(Br)cn1 (stereo not given)	-9.82
CN(C)c1cc(C(=O)N2CCN(c3nccs3)CC2)ccn1	-13.8
COc1ccc(C(C)NC(=O)NCCCn2cncn2)cc1F (stereo not given)	-4.51
Cc1nc(C)n(CC2CN(CCOc3cccc(C#N)c3)CCO2)n1 (stereo not given)	-6.4
CNc1cncc(C2CCN(C(=O)c3coc(C)n3)CC2)n1	24.2
OCC1N(Cc2ccco2)[C@H]2CC[C@]1(O)CC2 (stereo not given in full)	-9.15
COc1nc2c(cc1C(=O)N1CCCOC(CN3CCCC3)C1)CCC2 (stereo not given)	-13.7
O=C1N(Cc2ccc(F)c(F)c2)CCCC12CCN(C1CCCC1)C2 (stereo not given)	-2.62
CS(=O)(=O)N1CCN(C(=O)CN2CCCc3c(F)cc(F)cc32)CC1	-3.95
Cc1nc(C(C)C)sc1C(=O)NCCn1ccnc1	-7.02
Cc1nc(Nc2ncc(C)s2)cc(C2CCCN2S(C)(=O)=O)n1 (stereo not given)	-13.7
CCc1cc(O)n2nc(C3CCN(C(=O)c4ccccn4)CC3)cc2n1	-0.453
CC(C)(O)c1cc(CC2(NCc3ccccc3Cl)COC2)no1	-0.604
Cc1nc(C(=O)N(C)C)nn1-c1ccccc1C(C)C	0.366
Cc1cccc(CN2CC3C[C@]3(NC(=O)c3ccco3)C2)n1 (stereo not given in full)	-4.13
N#CCc1ccc(NC(=O)CNc2ccc(Br)cc2F)cc1	-7.86
CC(=O)c1cn(CC(=O)N[C@H](C(=O)O)C(C)C)c2ccccc12	-13.5
CS(=O)(=O)CCNC(=O)Nc1ccc(Cl)cc1-n1cccc1	23.7

Structure (SMILES)	cytotoxicity at 70.5 h [%]
CC(C)[C@H]1CN(c2cnccn2)C[C@@H]1NC(=O)C1(C#N)CCOCC1	-6.21
Cn1cncc1C(=O)N1CCOC2(COCCN(CC3CC3)C2)C1 (stereo not given)	-1.4
O=C(NCCN1CCOCC1)c1cc2c(s1)CCN2Cc1cccnc1	-3.99
CN1CCCN(C(=O)c2cc(-c3cc[nH]n3)n3ccccc23)CC1	-1.54
COC1CN(C(=O)C2CC2)CCC(=O)N(C)c2ccccc21 (stereo not given)	2.56
CCc1nnc2n1CCN(C(=O)C(C)COCc1ccccc1)C2 (stereo not given)	-9.75
COC(=O)c1sccc1NC(=O)C1CCCN1C(=O)c1ccco1 (stereo not given)	16.3
CC(C)(C)NC(=O)C1CSCN1S(=O)(=O)c1cccc(F)c1 (stereo not given)	-9.43
CC(=O)N1CCCN(C(=O)c2cnc3n[nH]c(C)c3c2)CC1	11.1
O=C(NCc1ccc(Cl)s1)NCc1nnc2n1CCCCC2	-14.9
CNCC(=O)N1CCC(c2ccnc(Nc3ccc(C)cn3)n2)C1 (stereo not given)	-1.4
CNc1oc(-c2cc(S(=O)(=O)N3CCCCCC3)c(C)o2)nc1C#N	-20.9
CCn1cnnc1CNC(=O)NCC(O)c1ccc(OC)cc1 (stereo not given)	-4.35
CN(C)C(=O)N1CCC2(C1)CN(c1cccnc1)C(=O)CN2C (stereo not given)	-7.38
CCCN(C(=O)c1cccnc1)c1nc2c(s1)CCc1c-2cnn1C	21
CCS(=O)(=O)N1CCC(c2nnc(C3CC3)o2)CC1	3.63
Cc1nc(NC(=O)C2CCCN(C(N)=O)C2)sc1-c1ccccc1 (stereo not given)	28.7
CC(=O)Nc1ccc(Oc2cccc(CN3CCCC3)c2)cc1	-1.93
CCc1nc(C)c(C(=O)NCCNc2ncccn2)s1	-6.37
O=C(CSC1CCCC1)N1CCN(C(=O)C2CC2c2cccs2)CC1 (stereo not given)	33.2
c1cc(CN2Cc3nccn3CC(Cn3cncn3)C2)ccn1 (stereo not given)	3.67
O[C@@H]1CN(Cc2cccc(F)c2)CC[C@H]1NCc1ccccn1	12.7
Clc1ccccc1OCCc1cc(C2CCNC2)n[nH]1 (stereo not given)	-4.47

Structure (SMILES)	cytotoxicity at 70.5 h [%]
COCc1ccc(C(=O)N2CCCN(c3ccc(F)cc3)CC2)s1	5.91
Cc1cc(C2NC(=O)CN2Cc2ccc(Br)cc2)cc(C)c1O (stereo not given)	0.666
CCOCCCNC(=O)C(C)n1cc(Br)cn1 (stereo not given)	1.42
COCCn1nc(C(=O)N(C)Cc2cccnc2)ccc1=O	4.23
CC(C)c1nc2n(n1)CC(NCc1nc(-c3ccsc3)no1)CC2 (stereo not given)	-11.5
CNS(=O)(=O)CC1CCCN1c1ccccn1 (stereo not given)	-4.24
CN(C)C(=O)[C@H]1CCS(=O)(=O)[C@@H]2CN(c3ncccn3)C[C@H]12	-4.18
N#Cc1cc(NC(=O)c2ccsc2)ccc1N1CCC(O)CC1	-11.8
CCS(=O)(=O)N1CCC(NC(=O)c2ccccc2O)CC1	-6.17
Cn1ncc2c1C(COCC1CC1)CN(Cc1ccco1)C2 (stereo not given)	4.98
CCN1CCN(c2ccc(F)cc2C(C)NCc2ccccn2)CC1 (stereo not given)	13.7
Cc1cc(CN(C)CCC(O)c2ccccc2)nn1C (stereo not given)	-2.1
CC(NC(=O)N1CCC(CC(N)=O)CC1)c1csc2ccccc12 (stereo not given)	-10.8
Cc1noc([C@@H]2C[C@H]3OCC[C@H]3N(S(C)(=O)=O)C2)n1	-8.57
CN1CCN(C(=O)C2CN(Cc3cc4ccccc4o3)CCN2)CC1 (stereo not given)	-3.72
Fc1cc(CNc2nncs2)ccc1Cl	-2.31
CCc1cnc(N2CC[C@H]3[C@H]2CC(=O)N3c2cccnc2)nc1	-10
O=C(C1CC(=O)N(c2n[nH]c3cc(Br)ccc23)C1)N1CCCC1 (stereo not given)	-9.16
CC(C)S(=O)(=O)NCC1CCCN(C(=O)c2ccc3c(c2)CCC3)C1 (stereo not given)	1.31
O=C(C[C@H]1[C@H]2CN(Cc3ccsc3)C[C@@H]12)N1CCCC1	-1.9
CCS(=O)(=O)N1CCc2onc(COc3ccccn3)c2C1	-3.32
CCC(CO)NCc1ccc(-c2ccc(Cl)cc2)o1 (stereo not given)	7.49
Cc1ccc(-c2nc(CN3CCN(C(=O)C4CC4)CC3)cs2)o1	-5.72

Structure (SMILES)	cytotoxicity at 70.5 h [%]
Cc1cc(OCC(=O)N2CCCC(c3nc(C)c(C)s3)C2)no1 (stereo not given)	11.5
O=C(NCCN1CCOCC1)c1cc(-c2ccc3c(c2)CCO3)n[nH]1	2
COC(=O)c1cnc2c(c(C)nn2C)c1OC	-3.27
CCN1CCC(NC(=O)NC2CCOc3ccc(Br)cc32)CC1 (stereo not given)	-3.03
CC(C)n1cc(C(=O)N2CCC(n3cc(C(C)(C)C)nn3)CC2)cn1	-12.1
COCC(=O)N1CCCC1(C(=O)N(C)C)c1cnccn1 (stereo not given)	-4.12
Cc1csc(C(C)(C)NCCNS(C)(=O)=O)n1	18.5
CN(Cc1ccccc1)C(=O)CN1CCOC(Cn2cncn2)C1 (stereo not given)	-6.53
CN(Cc1cc(=O)c(O)co1)C1CCN(c2ccc(F)cc2)CC1	22.1
CC(CC#N)N1CCN(C(=O)OC(C)(C)C)CC1 (stereo not given)	13.3
CN(C)C(=O)CO[C@H]1CN(Cc2ccccc2)[C@@H]2CCCO[C@H]12	34.3
CC(=O)Nc1ccc(CNC2CC(=O)N(Cc3cccc(F)c3)C2)cc1 (stereo not given)	-8.05
CSc1nc2cc(C)n(CC(=O)NC(C)C)c2c(=O)n1CC(C)C	-4.16
Cc1c(Br)c(C(F)(F)F)nn1C(C)C(=O)O (stereo not given)	-11.2
CC1CCCN(C(=O)NCCCn2cncn2)C1 (stereo not given)	-4.06
O=C1CCC2(CCCN(C(=O)C3CCCC3)C2)CN1CCc1c[nH]cn1 (stereo not given)	-2.97
Cc1cnn(CC2CCCCN2C(=O)c2ccc3[nH]cnc3c2)c1 (stereo not given)	8.11
O=C(CN1CCCCCC1=O)NC1CCc2nccn2C1 (stereo not given)	-8.44
CN(C)CCC1CCCCN1Cc1cnn(C)c1C1CC1 (stereo not given)	2.52
O=C(NCCCO)C1(N2CCCCC2)Cc2ccccc2C1	-10.2
CCN(CC)C(=O)CN(C)C1CCc2ccccc21 (stereo not given)	-3.62
Cc1ccc(S(=O)(=O)n2ccc(C(=O)NCC(F)(F)F)c2)cc1	1.3
Cc1noc([C@@H]2C[C@H]3OCC[C@H]3N(CC3CCCC3)C2)n1	-10.4

Structure (SMILES)	cytotoxicity at 70.5 h [%]
COc1c(CNCC(O)c2ccc(C)cc2)c(C(C)C)nn1C (stereo not given)	-3.08
CN1CC(=O)N(c2ccsc2)CC12CCN(S(C)(=O)=O)C2 (stereo not given)	1.05
Cc1nc(CNC(=O)NCC(F)(F)F)oc1C	3.56
NC(=O)Nc1cccc(C(=O)N(Cc2ccc(F)cc2)C2CC2)c1	-14.8
c1ccc(OCc2noc(CN3CCC(N4CCSCC4)CC3)n2)cc1	-5.9
O=C(Cc1noc2ccccc12)N1CCCC1c1noc(C2CC2)n1 (stereo not given)	32.1
CC(C(=O)NC1CC1)N1CCN(Cc2ccn(C)c(=O)c2)CC1 (stereo not given)	0.0611
Cc1ccsc1CNC(=O)NC(C)c1ccc2c(c1)CCC(=O)N2 (stereo not given)	-13.4
Cc1cc(C)n(CC2CN(Cc3cc(C)on3)CCO2)n1 (stereo not given)	-3.83
O=C(c1cccs1)N1CCC(Cn2nc(-c3ccco3)ccc2=O)CC1	8.96
CCOCC(=O)NCC1(NC(C)c2ccccc2)CCOCC1 (stereo not given)	-8.52
COc1cccn(CC(=O)N2CCCC3(CCCO3)CC2)c1=O (stereo not given)	-7.92
CCc1c(C)sc2c1c(N)nc(=O)n2CCN1CCOCC1	9.55
Cc1ccc(-c2nc(CN3CCCCC3Cn3cncn3)no2)cc1 (stereo not given)	-7.36
Cc1cccc(S(=O)(=O)NCc2cccc(CS(C)(=O)=O)c2)c1	9.39
O=C(CSc1ccc2c(c1)OCCO2)NS(=O)(=O)c1cccnc1	-3.19
CCC(SC)C(=O)N1CCC(n2ccnn2)CC1 (stereo not given)	-7.09
Cn1cnnc1S(=O)(=O)C1CCN(S(=O)(=O)c2ccccc2F)CC1	-9.91
COCC(NC(=O)c1cnn(C)c1)c1cccc(C(F)(F)F)c1 (stereo not given)	2.36
c1cncc(OCC2CN(Cc3nccs3)Cc3nccn3C2)c1 (stereo not given)	-15.5
c1csc(CN2Cc3[nH]nc(COCC4CC4)c3C2)c1	-8.6
Cc1cc(C2CCCN2Cc2cc(=O)n(C)c(=O)n2C)no1 (stereo not given)	18.5
Cc1nonc1C1CCCN1CCC(=O)N1CCc2ccccc2C1 (stereo not given)	24.4
